According to patent US7148204B2, “Antisense modulation of bcl-x expression” (Isis Pharmaceuticala, Inc., priority 1998, dated 2006):
In the oligonucleotide strings, read from the 5' end, every base follows the letter of its sugar. An asterisk marks phosphorothioate; unmarked linkages are phosphodiester. Other units and linkages are bracketed, terminal groups are in braces. A string of capitals states the bases alone. e = 2'-O-(2-methoxyethyl) (MOE); [5mC] = 5-methylcytosine; d = 2'-deoxy (DNA)

Assays:
Assay type in all cases: cell-based, human
bcl-xl mRNA = assay: RNase protection assay, bcl-xl mRNA in A549 cells; conditions: RPA
Source text: (§1) The ribonuclease (RNase) protection assay is a sensitive and specific method for quantitating expression levels (Zinn, et al., Cell, 1983, 34:865–79). The method is based on the hybridization of a target RNA to an in vitro transcribed ^32P-labeled anti-sense RNA probe from a DNA template. RNase treatment follows, resulting in degradation of single-stranded RNA and excess probe. The probe and target RNA are resolved by denaturing polyacrylamide gel electrophoresis with the “protected” probe visualized using autoradiography or beta imaging equipment. Template sets can be purchased (PharMingen Inc., San Diego Calif.) which contain a series of biologically relevant templates, each of distinct length and each representing a sequence in a distinct mRNA species. Each template set is capable of detecting up to 11 unique gene messages in a single reaction mix in addition to one or more housekeeping genes, L32 and GAPDH, which serve as internal controls. These template sets allow for multiple determinations to be made from a single sample. Multi-probe RPA can be performed on total RNA preparations derived by standard methods, without further purification of poly-A+ RNA.
(§2) Oligonucleotides were evaluated for their respective effects on bcl-xs and bcl-xl mRNA levels along with total bcl-x mRNA levels, using the RIBOQUANT™ RNase protection kit (Pharmingen, San Diego Calif.). All assays were performed according to manufacturer's protocols. Briefly, multi-probe DNA template sets were used to generate antisense RNA transcripts radiolabeled with […]. The template set used for apoptosis genes was the human hAPO-2 set. These radiolabeled probes were hybridized overnight with typically 10 μg of total cellular RNA. The reaction mixture was then digested with single-strand RNases to generate the protected fragments which were electrophoresed through a 5% acrylamide/urea gel. Protected bands were visualized and quantitated using a PhosphorImager (Molecular Dynamics, Sunnyvale Calif.).
(§3) Human bcl-x has two forms, a long form known as bcl-xl and a short form known as bcl-xs. […] The protein of bcl-xl is similar in size and structure to bcl-2, and could inhibit cell death upon growth factor withdrawal. The protein of bcl-xs is 63 amino acids shorter than bcl-xl. It could inhibit the bcl-2 function, thus promoting programmed cell death (apoptosis). Oligonucleotides were evaluated for their respective effects on bcl-xs and bcl-xl mRNA levels along with total bcl-x mRNA levels, using the RIBOQUANT™ RNase protection kit (Pharmingen, San Diego Calif.). All assays were performed according to manufacturer's protocols.
(§4) These oligonucleotides were tested for their inhibitory effects on bcl-xl and bcl-xs mRNA levels in A549 cells, as detected by RPA analysis. Oligonucleotide concentration was 200 nM.

bcl-xs/bcl-xl mRNA ratio = assay: RNase protection assay, bcl-xs/bcl-xl mRNA ratio in A549 cells; conditions: A549 cells, RPA; for bcl-xs/bcl-xl Fold difference: 200 nM; for bcl-xs/bcl-xl Fold difference / bcl-xs/bcl-xl* (change from the control ratio 17.56): no oligo = 1; for bcl-xs/bcl-xl (%): no oligo 17.56
Source text: as §1, §2, §3, §4

total bcl-x mRNA = assay: RNase protection assay, total bcl-x mRNA in A549 cells; parameters: % CONTROL total bcl-x: concentration or dose not given beside the values; conditions: RPA
Source text: as §1, §2, §3

bcl-xs mRNA = assay: RNase protection assay, bcl-xs mRNA in A549 cells; parameters: concentration or dose not given beside the values; conditions: RPA
Source text: as §1, §2, §3

[1] = test system: bcl-xs/bcl-xl transcript ratio; assay: PNA analogs, bcl-x splicing in electroporated HeLa cells; conditions: electroporation
Source text: A peptide-nucleic acid (PNA) oligonucleotide having the ISIS 22783 sequence (SEQ ID NO: 33) was synthesized as described in Example 4 hereinabove. The oligonucleotide (ISIS 32262) was uniformly modified with a PNA backbone throughout. A 5-base mismatch compound (ISIS 32263, SEQ ID NO: 52) was also synthesized as a full PNA. HeLa cells were transfected with these compounds by electroporation with a 200V pulse using a BTX Electro Cell Manipulator 600 (Genetronics, San Diego Calif.) and RNA was isolated 24 hours later.

## 106257 (antisense AGGTAAGTGGCCATCCAAGC; all 2'-MOE, all phosphorothioate, methylation of C not given here) [compound 106257]
bcl-xl mRNA; 200 nM
  % CONTROL bcl-xl: 78%
bcl-xs/bcl-xl mRNA ratio
  bcl-xs/bcl-xl Fold difference: 13 fold

## 106255 (antisense ATTCAGGTAAGTGGCCATCC; all 2'-MOE, all phosphorothioate, methylation of C not given here) [compound 106255]
bcl-xl mRNA; 200 nM
  % CONTROL bcl-xl: 64%
bcl-xs/bcl-xl mRNA ratio
  bcl-xs/bcl-xl Fold difference: 17 fold

## 23172 (antisense eG*eT*eT*e[5mC]*e[5mC]*eT*eG*eG*e[5mC]*e[5mC]*e[5mC]*eT*eT*eT*e[5mC]*eG*eG*e[5mC]*eT*e[5mC]) [compound 23172]
bcl-xl mRNA
  % CONTROL bcl-xl: 77%
Total bcl-x mRNA
  % CONTROL total bcl-x: 79%
bcl-xs mRNA
  % CONTROL bcl-xs: 84%
bcl-xs/bcl-xl mRNA ratio
  bcl-xs/bcl-xl (%): 19.38%
  bcl-xs/bcl-xl* (change from the control ratio 17.56): 1.10

## ISIS 32263: 5-base mismatch compound, SEQ ID NO: 52, full PNA (CTGGTTACACGACTCCAGGT; all peptide nucleic acid (PNA)) [reference compound]
[1]; 2 μM
  Ratio (approx.) of bcl-xs/bcl-xl: ~0.75
[1]; 5 μM
  Ratio (approx.) of bcl-xs/bcl-xl: ~0.75
[1]; 10 μM
  Ratio (approx.) of bcl-xs/bcl-xl: ~1.0
[1]; 15 μM
  Ratio (approx.) of bcl-xs/bcl-xl: ~0.75
[1]; 25 μM
  Ratio (approx.) of bcl-xs/bcl-xl: ~1.0
[1]; RNA 24 hours later, 1 μM
  Ratio (approx.) of bcl-xs/bcl-xl: ~1.5

## 22782 (antisense e[5mC]*eA*eA*eA*eA*eG*eT*eA*eT*e[5mC]*e[5mC]*e[5mC]*eA*eG*e[5mC]*e[5mC]*eG*e[5mC]*e[5mC]*eG) [compound 22782]
bcl-xl mRNA
  % CONTROL bcl-xl: 76%
Total bcl-x mRNA
  % CONTROL total bcl-x: 75%
bcl-xs mRNA
  % CONTROL bcl-xs: 64%
bcl-xs/bcl-xl mRNA ratio
  bcl-xs/bcl-xl (%): 15.72%
  bcl-xs/bcl-xl* (change from the control ratio 17.56): 0.89

## ISIS 32262: PNA oligonucleotide having the ISIS 22783 sequence (SEQ ID NO: 33), PNA backbone throughout (CTGGATCCAAGGCTCTAGGT; all peptide nucleic acid (PNA))
[1]; 2 μM
  Ratio (approx.) of bcl-xs/bcl-xl: ~2.0
[1]; 5 μM
  Ratio (approx.) of bcl-xs/bcl-xl: ~3.5
[1]; 10 μM
  Ratio (approx.) of bcl-xs/bcl-xl: ~6.5
[1]; 15 μM
  Ratio (approx.) of bcl-xs/bcl-xl: ~7.75
[1]; 25 μM
  Ratio (approx.) of bcl-xs/bcl-xl: ~11.5
[1]; RNA 24 hours later, 1 μM
  Ratio (approx.) of bcl-xs/bcl-xl: ~1.5

## 106260 (antisense GTGGCCATCCAAGCTGCGAT; all 2'-MOE, all phosphorothioate, methylation of C not given here) [compound 106260]
bcl-xl mRNA; 200 nM
  % CONTROL bcl-xl: 66%
bcl-xs/bcl-xl mRNA ratio
  bcl-xs/bcl-xl Fold difference: 12 fold

## 23175 (antisense eT*eG*eT*eA*eG*e[5mC]*e[5mC]*e[5mC]*eA*eG*e[5mC]*eA*eG*eA*eA*e[5mC]*e[5mC]*eA*e[5mC]*eG) [compound 23175]
bcl-xl mRNA
  % CONTROL bcl-xl: 82%
Total bcl-x mRNA
  % CONTROL total bcl-x: 78%
bcl-xs mRNA
  % CONTROL bcl-xs: 52%
bcl-xs/bcl-xl mRNA ratio
  bcl-xs/bcl-xl (%): 11.44%
  bcl-xs/bcl-xl* (change from the control ratio 17.56): 0.65

## 26080 (antisense CTGGTTACACGACTCCAGGT; all 2'-MOE, all phosphorothioate, methylation of C not given here) [compound 26080]
bcl-xl mRNA; 200 nM
  % CONTROL bcl-xl: 77%
bcl-xs/bcl-xl mRNA ratio
  bcl-xs/bcl-xl Fold difference: 2 fold

## 23174 (antisense e[5mC]*e[5mC]*eG*eG*e[5mC]*e[5mC]*eA*e[5mC]*eA*eG*eT*e[5mC]*eA*eT*eG*e[5mC]*e[5mC]*e[5mC]*eG*eT) [compound 23174]
bcl-xl mRNA
  % CONTROL bcl-xl: 67%
Total bcl-x mRNA
  % CONTROL total bcl-x: 66%
bcl-xs mRNA
  % CONTROL bcl-xs: 56%
bcl-xs/bcl-xl mRNA ratio
  bcl-xs/bcl-xl (%): 14.93%
  bcl-xs/bcl-xl* (change from the control ratio 17.56): 0.85

## 106256 (antisense TCAGGTAAGTGGCCATCCAA; all 2'-MOE, all phosphorothioate, methylation of C not given here) [compound 106256]
bcl-xl mRNA; 200 nM
  % CONTROL bcl-xl: 82%
bcl-xs/bcl-xl mRNA ratio
  bcl-xs/bcl-xl Fold difference: 15 fold

## 106258 (antisense GTAAGTGGCCATCCAAGCTG; all 2'-MOE, all phosphorothioate, methylation of C not given here) [compound 106258]
bcl-xl mRNA; 200 nM
  % CONTROL bcl-xl: 66%
bcl-xs/bcl-xl mRNA ratio
  bcl-xs/bcl-xl Fold difference: 21 fold

## 106253 (antisense GGTCATTCAGGTAAGTGGCC; all 2'-MOE, all phosphorothioate, methylation of C not given here) [compound 106253]
bcl-xl mRNA; 200 nM
  % CONTROL bcl-xl: 48%
bcl-xs/bcl-xl mRNA ratio
  bcl-xs/bcl-xl Fold difference: 19 fold

## 106251 (antisense AGGTGGTCATTCAGGTAAGT; all 2'-MOE, all phosphorothioate, methylation of C not given here) [compound 106251]
bcl-xl mRNA; 200 nM
  % CONTROL bcl-xl: 57%
bcl-xs/bcl-xl mRNA ratio
  bcl-xs/bcl-xl Fold difference: 25 fold

## 16968 (antisense e[5mC]*eT*e[5mC]*e[5mC]*eG*dA*dT*dG*dT*dC*dC*dC*dC*dT*dC*eA*eA*eA*eG*eT) [compound 16968]
bcl-xl mRNA
  % CONTROL bcl-xl: 15%
Total bcl-x mRNA
  % CONTROL total bcl-x: 21%
bcl-xs mRNA
  % CONTROL bcl-xs: 20%
bcl-xs/bcl-xl mRNA ratio
  bcl-xs/bcl-xl (%): 20.18%
  bcl-xs/bcl-xl* (change from the control ratio 17.56): 1.15

## 106249 (antisense CTCTAGGTGGTCATTCAGGT; all 2'-MOE, all phosphorothioate, methylation of C not given here) [compound 106249]
bcl-xl mRNA; 200 nM
  % CONTROL bcl-xl: 47%
bcl-xs/bcl-xl mRNA ratio
  bcl-xs/bcl-xl Fold difference: 23 fold

## 106252 (antisense GTGGTCATTCAGGTAAGTGG; all 2'-MOE, all phosphorothioate, methylation of C not given here) [compound 106252]
bcl-xl mRNA; 200 nM
  % CONTROL bcl-xl: 72%
bcl-xs/bcl-xl mRNA ratio
  bcl-xs/bcl-xl Fold difference: 23 fold

## 26066 (antisense ATCCAAGGCTCTAGGTGGTC; all 2'-MOE, all phosphorothioate, methylation of C not given here) [compound 26066]
bcl-xl mRNA; 200 nM
  % CONTROL bcl-xl: 24%
bcl-xs/bcl-xl mRNA ratio
  bcl-xs/bcl-xl Fold difference: 37 fold

## 16972 (antisense eT*e[5mC]*eA*e[5mC]*eG*dT*dT*dG*dG*dC*dG*dC*dT*dT*dA*eG*e[5mC]*e[5mC]*eA*eT) [compound 16972]
bcl-xl mRNA
  % CONTROL bcl-xl: 91%
Total bcl-x mRNA
  % CONTROL total bcl-x: 87%
bcl-xs mRNA
  % CONTROL bcl-xs: 60%
bcl-xs/bcl-xl mRNA ratio
  bcl-xs/bcl-xl (%): 11.68%
  bcl-xs/bcl-xl* (change from the control ratio 17.56): 0.67

## 22784 (antisense e[5mC]*e[5mC]*eA*eG*e[5mC]*e[5mC]*eG*e[5mC]*e[5mC]*eG*eT*eT*e[5mC]*eT*e[5mC]*e[5mC]*eT*eG*eG*eA) [compound 22784]
bcl-xl mRNA
  % CONTROL bcl-xl: 72%
Total bcl-x mRNA
  % CONTROL total bcl-x: 92%
bcl-xs mRNA
  % CONTROL bcl-xs: 204%
bcl-xs/bcl-xl mRNA ratio
  bcl-xs/bcl-xl (%): 48.63%
  bcl-xs/bcl-xl* (change from the control ratio 17.56): 2.77

## 106250 (antisense CTAGGTGGTCATTCAGGTAA; all 2'-MOE, all phosphorothioate, methylation of C not given here) [compound 106250]
bcl-xl mRNA; 200 nM
  % CONTROL bcl-xl: 40%
bcl-xs/bcl-xl mRNA ratio
  bcl-xs/bcl-xl Fold difference: 21 fold

## 106254 (antisense TCATTCAGGTAAGTGGCCAT; all 2'-MOE, all phosphorothioate, methylation of C not given here) [compound 106254]
bcl-xl mRNA; 200 nM
  % CONTROL bcl-xl: 80%
bcl-xs/bcl-xl mRNA ratio
  bcl-xs/bcl-xl Fold difference: 13 fold

## 106259 (antisense AAGTGGCCATCCAAGCTGCG; all 2'-MOE, all phosphorothioate, methylation of C not given here) [compound 106259]
bcl-xl mRNA; 200 nM
  % CONTROL bcl-xl: 96%
bcl-xs/bcl-xl mRNA ratio
  bcl-xs/bcl-xl Fold difference: 15 fold

## 105751 (antisense TGGTTCTTACCCAGCCGCCG; all 2'-MOE, all phosphorothioate, methylation of C not given here) [compound 105751]
bcl-xl mRNA; 200 nM
  % CONTROL bcl-xl: 34%
bcl-xs/bcl-xl mRNA ratio
  bcl-xs/bcl-xl Fold difference: 45 fold
